Laboratory results as given in PubChem BioAssay (NCI).
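96-well plates; 48 h exposure; 5 concentrations. Endpoints by linear interpolation between flanking doses. Not reached: highest tested concentration assigned. Abbreviation: GI50, concentration required for 50% inhibition of growth. TGI is the concentration that stops growth completely.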

Tests used:
Test in all cases: inhibition of tumour cell growth, NCI panel, 48 h
786-0 renal = test system: 786-0 renal
A498 renal = test system: A498 renal
A549 NSCLC = test system: A549 NSCLC
ACHN renal = test system: ACHN renal
BT-549 breast = test system: BT-549 breast
CAKI-1 renal = test system: CAKI-1 renal
COLO 205 colon = test system: COLO 205 colon
DU-145 prostate = test system: DU-145 prostate
HCC-2998 colon = test system: HCC-2998 colon
HCT-116 colon = test system: HCT-116 colon
HCT-15 colon = test system: HCT-15 colon
HL-60(TB) leukemia = test system: HL-60(TB) leukemia
HOP-62 NSCLC = test system: HOP-62 NSCLC
HOP-92 NSCLC = test system: HOP-92 NSCLC
HS 578T breast = test system: HS 578T breast
HT29 colon = test system: HT29 colon
IGROV1 ovarian = test system: IGROV1 ovarian
K-562 leukemia = test system: K-562 leukemia
KM12 colon = test system: KM12 colon
LOX IMVI melanoma = test system: LOX IMVI melanoma
M14 melanoma = test system: M14 melanoma
MALME-3M melanoma = test system: MALME-3M melanoma
MCF7 breast = test system: MCF7 breast
MDA-MB-231 breast = test system: MDA-MB-231 breast
MDA-MB-435 = test system: MDA-MB-435
MOLT-4 leukemia = test system: MOLT-4 leukemia
NCI-H226 lung = test system: NCI-H226 lung
NCI-H23 lung = test system: NCI-H23 lung

SMILES: COc1cc(/C=C/C(=O)c2ccc(NC(=O)CN3CCN(c4cc5c(cc4F)c(=O)c(C(=O)O)cn5C4CC4)CC3)cc2)cc(OC)c1OC
- GI50 (786-0 renal): 947 nM
- TGI (786-0 renal): 3.19 µM
- GI50 (A498 renal): 825 nM
- TGI (A498 renal): 2830 nM
- GI50 (A549 NSCLC): 368 nM
- TGI (A549 NSCLC): 2140 nM
- GI50 (ACHN renal): 692 nM
- TGI (ACHN renal): > 26.6 µM
- GI50 (BT-549 breast): 405 nM
- TGI (BT-549 breast): 1440 nM
- GI50 (CAKI-1 renal): 1470 nM
- TGI (CAKI-1 renal): > 32.5 µM
- GI50 (COLO 205 colon): 1340 nM
- TGI (COLO 205 colon): 8.11 µM
- GI50 (DU-145 prostate): 1070 nM
- TGI (DU-145 prostate): > 27.1 µM
- GI50 (HCC-2998 colon): 3.16 µM
- TGI (HCC-2998 colon): 14.1 µM
- GI50 (HCT-116 colon): 324 nM
- TGI (HCT-116 colon): 1310 nM
- GI50 (HCT-15 colon): 575 nM
- TGI (HCT-15 colon): > 100 µM
- GI50 (HL-60(TB) leukemia): 1750 nM
- TGI (HL-60(TB) leukemia): > 29.8 µM
- GI50 (HOP-62 NSCLC): 353 nM
- TGI (HOP-62 NSCLC): 3.93 µM
- GI50 (HOP-92 NSCLC): 1790 nM
- TGI (HOP-92 NSCLC): 7.58 µM
- GI50 (HS 578T breast): 16.3 µM
- TGI (HS 578T breast): > 100 µM
- GI50 (HT29 colon): 285 nM
- TGI (HT29 colon): 1020 nM
- GI50 (IGROV1 ovarian): 671 nM
- TGI (IGROV1 ovarian): 3.37 µM
- GI50 (K-562 leukemia): 360 nM
- TGI (K-562 leukemia): > 100 µM
- GI50 (KM12 colon): 451 nM
- TGI (KM12 colon): 2310 nM
- GI50 (LOX IMVI melanoma): 511 nM
- TGI (LOX IMVI melanoma): 2240 nM
- GI50 (M14 melanoma): 1150 nM
- TGI (M14 melanoma): 13.6 µM
- GI50 (MALME-3M melanoma): 2320 nM
- TGI (MALME-3M melanoma): 14.5 µM
- GI50 (MCF7 breast): 381 nM
- TGI (MCF7 breast): > 100 µM
- GI50 (MDA-MB-231 breast): 712 nM
- TGI (MDA-MB-231 breast): 6.36 µM
- GI50 (MDA-MB-435): 433 nM
- GI50 (MOLT-4 leukemia): 1270 nM
- TGI (MOLT-4 leukemia): > 100 µM
- GI50 (NCI-H226 lung): 1520 nM
- TGI (NCI-H226 lung): > 51 µM
- GI50 (NCI-H23 lung): 971 nM
